Measurements as given in publication PMC11356821, “A New Class of Benzo[b]thiophene-chalcones as Cholinesterase Inhibitors: Synthesis, Biological Evaluation, Molecular Docking and ADME Studies” (Molecules, 2024).

What was measured:
[1] = test system: SH-SY5Y cells; assay: Cell viability, MTT assay; assay type: cell-based; settings: 24 h, at IC50 concentrations
Description: Therefore, their impact on the viability of SH-SY5Y cells (neuroblastoma cell line) has been studied. For cell viability experiments, the compounds were tested at different concentrations (0, 30, 50, 100 and 200 μM) for 24 h and analyzed using the MTT test.
Human neuroblastoma cell line SH-SY5Y was obtained from ICLC Cell bank (cat. # HTL95013). The cells were cultured in high-glucose DMEM supplemented with 10% fetal bovine serum, 100 units/mL of penicillin and 100 µg/mL of streptomycin (all from Gibco, Life sciences; Thermo Fisher Scientific, Waltham, MA, USA) and maintained at 37 °C in a humidified atmosphere of 5% CO2 and 95% air. Cell viability was detected by the colorimetric 3-(4,5 dimethylthiazol-2-yl)-2,5-diphenyltetrazolium bromide (MTT) assay, as previously described, with minor modifications. Briefly, 1.5 × 10^4 cells/well were seeded in 96-well plates and incubated for 24 h with different concentrations (30–200 μM) of compounds. After incubation, 100 μL of the MTT reagent (0.5 mg/mL in DMEM) was added, and the cells were incubated for 3 h at 37 °C. The resulting violet formazan precipitate was dissolved in DMSO and quantified by spectrophotometry at 570 nm using a microplate reader (VANTAstar_BMG LABTECH GmbH, Offenburg, Germany). Viability data were reported in the percentage of control for each compound.

[2] = target: T1, equine serum BChE (Equus caballus, UniProt P81908); assay: biochemical; settings: for inhibition at 50 µM: read-out: BChE (I %); for BChE (I %): inhibition at 50 µM
T1 construct: from tissue; host or cells: equine serum
Description: (§1) AChE (EC EC 3.1.1.7) from electrophorus electricus and equine serum BChE (EC 3.1.1.8) were used for the inhibitory assays. ChE inhibitory activity was evaluated using Ellman’s method, as previously described, with slight modifications. The reaction mixture was prepared by dissolving acetylthiocholine iodide (1.5 mM), 5,5’-dithiobis-2-nitrobenzoate (DTNB) (1.5 mM) and the inhibitor (at the desired concentrations) or DMSO alone (control) in 0.1 M phosphate buffer (pH 8.0) to a final volume of 200 µL. The enzyme was added to the reaction mixture and the absorbance was monitored at 405 nm as soon as it was added. This test is based on the AChE enzyme hydrolyzing acetylthiocholine to produce acetate and thiocholine. Thiocholine reacts with DTNB to produce a yellow-colored anion. For the BChE assay, we followed the same procedures as above but used BChE as the enzyme and S-butyrylthiocholine chloride (BTCI) as the substrate.

[3] = target: electrophorus electricus AChE (Electrophorus electricus, UniProt O42275); assay: AChE inhibition, Ellman's method; assay type: biochemical; settings: for inhibition at 50 µM: read-out: AChE (I %); for AChE (I %): inhibition at 50 µM
Description: The potential effects of the synthesized compounds 4a–4i and 5a–5i on AChE and BChE were performed using electrophorus electricus AChE and equine serum BChE due to their low cost and high degree of similarity with their respective human enzymes. For the first screenings, they are excellent and widely used in vitro models.
as §1, with “substrate. […] Galantamine is considered as a positive control under the same experimental conditions.” for “substrate.”

[4] = Solubility in DMSO; assay type: physicochemical

electrophorus electricus AChE, sequence (O42275 24-633): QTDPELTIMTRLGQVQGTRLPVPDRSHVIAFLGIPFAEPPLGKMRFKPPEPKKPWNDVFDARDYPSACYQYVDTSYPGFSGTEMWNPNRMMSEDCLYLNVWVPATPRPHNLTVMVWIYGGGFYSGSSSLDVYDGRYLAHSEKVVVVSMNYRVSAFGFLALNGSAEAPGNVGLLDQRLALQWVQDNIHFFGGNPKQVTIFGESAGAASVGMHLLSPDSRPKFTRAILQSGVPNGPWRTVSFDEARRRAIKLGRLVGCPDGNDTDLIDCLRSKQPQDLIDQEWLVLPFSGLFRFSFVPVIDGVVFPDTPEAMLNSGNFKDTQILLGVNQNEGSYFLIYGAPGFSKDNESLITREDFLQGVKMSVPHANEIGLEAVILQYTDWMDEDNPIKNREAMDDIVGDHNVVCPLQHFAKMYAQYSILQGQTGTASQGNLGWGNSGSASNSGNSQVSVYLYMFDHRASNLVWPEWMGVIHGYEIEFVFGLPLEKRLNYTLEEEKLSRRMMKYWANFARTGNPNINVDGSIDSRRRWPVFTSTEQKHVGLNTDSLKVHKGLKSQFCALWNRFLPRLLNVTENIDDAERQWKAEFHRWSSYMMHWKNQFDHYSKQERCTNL
T1 sequence (P81908 whole entry): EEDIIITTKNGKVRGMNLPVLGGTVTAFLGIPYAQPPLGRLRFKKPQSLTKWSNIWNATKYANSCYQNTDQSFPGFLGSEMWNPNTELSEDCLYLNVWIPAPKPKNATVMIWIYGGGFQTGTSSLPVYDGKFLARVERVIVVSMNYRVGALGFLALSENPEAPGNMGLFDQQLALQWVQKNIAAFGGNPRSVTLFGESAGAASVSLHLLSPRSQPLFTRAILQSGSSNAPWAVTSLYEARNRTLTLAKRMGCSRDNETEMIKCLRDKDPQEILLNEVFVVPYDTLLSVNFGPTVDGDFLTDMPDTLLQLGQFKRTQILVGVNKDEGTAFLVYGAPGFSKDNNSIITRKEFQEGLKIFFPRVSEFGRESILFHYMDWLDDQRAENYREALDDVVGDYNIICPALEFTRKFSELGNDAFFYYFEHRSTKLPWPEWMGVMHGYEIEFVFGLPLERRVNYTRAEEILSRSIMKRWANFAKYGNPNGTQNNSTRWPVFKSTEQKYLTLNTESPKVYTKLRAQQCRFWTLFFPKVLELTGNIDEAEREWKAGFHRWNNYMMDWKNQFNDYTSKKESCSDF

In the case of O=C(c1ccc(O)cc1)c1c(-c2ccc(O)cc2)sc2ccccc12 [Compound 5i, 3-(4-hydroxybenzoyl)-2-(4-hydroxyphenyl)benzothiophene], the “cytotoxic effects on cell viability” value [1] is reported as “no cytotoxic effects”, the IC50 [2] is reported as 59.6 ± 11.6 µM and the inhibition at 50 µM [2] is reported as 42.2%. It also gave an inhibition at 50 µM [3] of 19.3%.

In the case of Nc1ccc(C(=O)c2c(-c3ccc(N)cc3)sc3ccccc23)cc1 [Compound 5h, 3-(4-aminobenzoyl)-2-(4-aminophenyl)benzothiophene], the “cytotoxic effects on cell viability” value [1] is reported as “no cytotoxic effects”, the IC50 [2] is reported as 24.3 ± 0.5 µM and the inhibition at 50 µM [2] is reported as 58.3%.

Cc1ccc(C(=O)c2c(-c3ccc(C)cc3)sc3ccccc23)cc1 [Compound 5g, 3-(4-Methylbenzoyl)-2-(4-methylphenyl)benzothiophene] gave an inhibition at 50 µM [2] of 13.1% and an inhibition at 50 µM [3] of 28.3%.

In the case of N#Cc1ccc(C(=O)c2c(-c3ccc(C#N)cc3)sc3ccccc23)cc1 [Compound 5d, 4-Cianophenyl-[2-(4-cianophenyl)-benzothiophen-3-yl]-methanone], the inhibition at 50 µM [2] is reported as 14% and the inhibition at 50 µM [3] is reported as 4.5%.

O=C(c1ccc(C(F)(F)F)cc1)c1c(-c2ccc(C(F)(F)F)cc2)sc2ccccc12 [Compound 5e, 3-(4-Trifluoromethylbenzoyl)-2-(4-trifluoromethylphenil)benzothiophene] showed an inhibition at 50 µM [2] of 3.1% and an inhibition at 50 µM [3] of 10%.

In the case of N#Cc1ccc(-c2cc3ccccc3s2)cc1 [Compound 4d, 4-(Benzothiophene-2-yl)benzonitrile], the “solubility in dimethyl sulfoxide (DMSO)” value [4] is reported as “insoluble”, the “BChE (I %)” value [2] is reported as “Ins” and the “AChE (I %)” value [3] is reported as “Ins”.

Compound O=C(c1ccc([N+](=O)[O-])cc1)c1c(-c2ccc([N+](=O)[O-])cc2)sc2ccccc12 [Compound 5b, 3-(4-Nitrobenzoyl)-2-(4-nitrophenyl)benzothiophene] has an inhibition at 50 µM [2] of 16.8% and an inhibition at 50 µM [3] of 11%.

In the case of FC(F)(F)c1ccc(-c2cc3ccccc3s2)cc1 [Compound 4e, 2-(4-Trifluoromethylphenyl)benzothiophene], the “solubility in dimethyl sulfoxide (DMSO)” value [4] is reported as “insoluble”, the “BChE (I %)” value [2] is reported as “Ins” and the “AChE (I %)” value [3] is reported as “Ins”.

With O=C(c1ccc(Cl)cc1)c1c(-c2ccc(Cl)cc2)sc2ccccc12 [Compound 5f, 3-(4-Chlorobenzoyl)-2-(4-chlorophenyl)benzothiophene] the “cytotoxic effects on cell viability” value [1] was “no cytotoxic effects”, the inhibition at 50 µM [2] was 23.1% and the IC50 [3] was 62.1 ± 1.2 µM. The inhibition at 50 µM [3] was 39.9%.

O=[N+]([O-])c1ccc(-c2cc3ccccc3s2)cc1 [Compound 4b, 2-(4-Nitrophenyl)benzothiophene] showed an inhibition at 50 µM [2] of 2.29% and an inhibition at 50 µM [3] of 8.2%.

COc1ccc(C(=O)c2c(-c3ccc(OC)cc3)sc3ccccc23)cc1 [Compound 5c, 3-(4-Methoxybenzoyl)-2-(4-methoxyphenyl)benzothiophene] showed an inhibition at 50 µM [2] of 11.9% and an inhibition at 50 µM [3] of 3.5%.

For O=C(c1ccccc1)c1c(-c2ccccc2)sc2ccccc12 [Compound 5a, 3-Benzoyl-2-phenylbenzothiophene], the “cytotoxic effects on cell viability” value [1] was “no cytotoxic effects”, the IC50 [2] was 83.4 ± 1.2 µM and the inhibition at 50 µM [2] was 35.7%. It also gave an inhibition at 50 µM [3] of 20.8%.

Nc1ccc(-c2cc3ccccc3s2)cc1 [Compound 4h, 2-(4-aminophenyl)benzothiophene] gave an inhibition at 50 µM [2] of 10.2%.

For COc1ccc(-c2cc3ccccc3s2)cc1 [Compound 4c, 2-(4-Methoxyphenyl)benzothiophene], the inhibition at 50 µM [2] was 1.2% and the inhibition at 50 µM [3] was 9.6%.

With Oc1ccc(-c2cc3ccccc3s2)cc1 [Compound 4i, 2-(4-hydroxyphenyl)benzothiophene] the inhibition at 50 µM [2] was 13.6% and the inhibition at 50 µM [3] was 8.19%.

With Clc1ccc(-c2cc3ccccc3s2)cc1 [Compound 4f, 2-(4-Chlorophenyl)benzothiophene] the “solubility in dimethyl sulfoxide (DMSO)” value [4] was “insoluble”, the “BChE (I %)” value [2] was “Ins” and the “AChE (I %)” value [3] was “Ins”.

For c1ccc(-c2cc3ccccc3s2)cc1 [Compound 4a, 2-Phenylbenzothiophene], the “solubility in dimethyl sulfoxide (DMSO)” value [4] was “insoluble”, the “BChE (I %)” value [2] was “Ins” and the “AChE (I %)” value [3] was “Ins”.

For Cc1ccc(-c2cc3ccccc3s2)cc1 [Compound 4g, 2-(4-Methylphenyl)benzothiophene], the “solubility in dimethyl sulfoxide (DMSO)” value [4] was “insoluble”, the “BChE (I %)” value [2] was “Ins” and the “AChE (I %)” value [3] was “Ins”.
